The values that follow come from patent publication US9090593B2, “Bicyclic compounds as Pim inhibitors” (AMGEN INC., priority 2010, dated 2015).

Test [1] addresses T1, full length recombinant Pim-1 protein (Homo sapiens, UniProt P11309).
T1 construct: by full length recombinant Pim-1, Pim-2, or Pim-3 protein; hexahistidine tag followed by a thrombin cleavage site (N); made in house; host or cells: Sf9 (baculovirus) or E. coli (pET28)
The experiment in a line: Pim-1 enzyme assay (HTRF, phosphorylation of biotinylated-BAD (S112) peptide). The settings on record: read-out: Pim_1_IC50. The format is biochemical. Put shortly:
(§1)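 HTRF readout (europium anti-pBAD S112 antibody, streptavidin-APC) of biotin-BAD peptide phosphorylation by recombinant full-length Pim-1 or Pim-2, buffer 60 mM Hepes pH 7.0, 2 mM DTT, 0.05% BSA. Enzymes were His6-tagged, from baculovirus/Sf9 or E. coli.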

Test [2] has as its target T2, full length recombinant Pim-2 protein (Homo sapiens, UniProt Q9P1W9).
T2 construct: by full length recombinant Pim-1, Pim-2, or Pim-3 protein; hexahistidine tag followed by a thrombin cleavage site (N); made in house; host or cells: Sf9 (baculovirus) or E. coli (pET28)
Put plainly: Pim-2 enzyme assay (HTRF, phosphorylation of biotinylated-BAD (S112) peptide). The following applies: read-out: Pim2_IC50. It counts as biochemical. Put shortly:
as §1
(In TR-FRET formats the signal depends on donor and acceptor labels being close together.)

Each structure is given as a SMILES string.

T2 sequence (Q9P1W9 whole entry): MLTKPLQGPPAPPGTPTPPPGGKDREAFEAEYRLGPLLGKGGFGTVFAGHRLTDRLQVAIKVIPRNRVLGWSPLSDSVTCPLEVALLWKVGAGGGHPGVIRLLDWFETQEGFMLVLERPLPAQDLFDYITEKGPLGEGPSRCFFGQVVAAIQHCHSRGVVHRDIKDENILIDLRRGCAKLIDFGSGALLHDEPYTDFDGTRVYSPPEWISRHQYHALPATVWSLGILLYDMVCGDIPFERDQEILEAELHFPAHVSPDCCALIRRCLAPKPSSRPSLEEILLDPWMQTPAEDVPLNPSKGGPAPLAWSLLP
T1 sequence (P11309 whole entry): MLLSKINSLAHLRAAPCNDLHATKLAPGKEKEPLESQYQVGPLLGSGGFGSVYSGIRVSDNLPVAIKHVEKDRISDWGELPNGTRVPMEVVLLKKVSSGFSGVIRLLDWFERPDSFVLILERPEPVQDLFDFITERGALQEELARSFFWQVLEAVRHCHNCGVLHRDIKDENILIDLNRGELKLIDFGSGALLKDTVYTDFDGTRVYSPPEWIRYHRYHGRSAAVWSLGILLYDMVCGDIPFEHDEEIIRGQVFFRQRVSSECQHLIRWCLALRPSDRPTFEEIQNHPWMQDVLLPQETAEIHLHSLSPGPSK

As to `COc1cc(N[C@@H]2CCCNC2)nc(-c2c[nH]c3ccc(-c4c(F)cccc4F)cc23)n1` [Example 479], the IC50 worked out at 112 nM in test [1] and 77 nM in test [2].

For `CNC(=O)c1ccc2[nH]nc(-c3cncc(N4CCC(N)CC4)n3)c2c1` [Example 480], the IC50 came out at 106 nM in test [1] and 203 nM in test [2].

For `CN(C)C(=O)c1ccc2[nH]nc(-c3ccnc(N[C@@H]4CCCNC4)n3)c2c1` [Example 481], the IC50 in test [1] came out at 444 nM; in test [2], 719 nM.

With `CN(C)C(=O)c1ccc2[nH]nc(-c3cncc(N4CCC(N)CC4)n3)c2c1` [Example 484], the IC50 in test [1] is 374 nM; in test [2] it was above 1000 nM.

Take `COC(=O)c1ccc2[nH]nc(-c3nccc(NC4CCNCC4)n3)c2c1` [Example 485]: the IC50 in test [1] and in test [2] was 26 nM each time.

Regarding `COC(=O)c1ccc2[nH]nc(-c3nccc(N[C@@H]4CCCNC4)n3)c2c1` [Example 486], the IC50 was determined as 72 nM in test [1] and 543 nM in test [2].

For the compound `CN(C)C(=O)c1ccc2[nH]nc(-c3cncc(NC4CCNCC4)n3)c2c1` [Example 487], the values for the IC50 in test [1] and in test [2] were 159 nM and 217 nM, respectively.

Regarding `COC(=O)c1ccc2[nH]nc(-c3nccc(N4CCC(N)CC4)n3)c2c1` [Example 488], the results for the IC50 in test [1] and in test [2] were 46 nM and 55 nM, respectively.

As for `CN(C)c1nc(-c2c[nH]c3ccc(-c4c(F)cccc4F)cc23)cc(=O)[nH]1` [Example 492], the IC50 in test [1] amounted to 46 nM; in test [2] it was 109 nM.

Regarding `COc1cc(-c2c[nH]c3ccc(-c4c(F)cccc4F)cc23)nc(O[C@@H]2CCCNC2)n1` [Example 493], the values for the IC50 in test [1] and in test [2] were 834 nM and 653 nM, respectively.

Regarding `CN(C)C(=O)c1ccc2[nH]nc(-c3cncc(N[C@@H]4CCCNC4)n3)c2c1` [Example 494], the results for the IC50 in test [1] and in test [2] were 834 nM and above 1000 nM, respectively.

Turning to `CN(C)c1cc(=O)[nH]c(-c2c[nH]c3ccc(-c4c(F)cccc4F)cc23)n1` [Example 496], the figures for the IC50 in test [1] and in test [2] were 159 nM and above 1000 nM, respectively.

Turning to `COC(=O)c1ccc2[nH]nc(-c3ccnc(O[C@@H]4CCCNC4)n3)c2c1` [Example 497], the values for the IC50 in test [1] and in test [2] were 46 nM and 207 nM, respectively.

Turning to `COC(=O)c1ccc2[nH]nc(-c3nccc(O[C@@H]4CCCNC4)n3)c2c1` [Example 498], the IC50 in test [1] amounted to 70 nM; in test [2], 726 nM.

In the case of `CC(C)Nc1cc(=O)[nH]c(-c2c[nH]c3ccc(-c4c(F)cccc4F)cc23)n1` [Example 499], the IC50 was 364 nM in test [1] and above 1000 nM in test [2].

Turning to `CC(C)Nc1nc(-c2c[nH]c3ccc(-c4c(F)cccc4F)cc23)cc(=O)[nH]1` [Example 500], the IC50 came to 9 nM in test [1] and 19 nM in test [2].

Turning to `CC1CCCCN1c1nc(-c2ccc3[nH]cc(-c4cncc(O[C@@H]5CCCNC5)n4)c3c2)cs1` (stereo partly drawn) [Example 501], the IC50 in test [1] was 91 nM; in test [2] it was 812 nM.

As to `c1ncc(-c2ccc3[nH]cc(-c4cncc(O[C@@H]5CCCNC5)n4)c3c2)cc1NC1CC1` [Example 502], the figures for the IC50 in test [1] and in test [2] were 20 nM and 424 nM, respectively.

For `Clc1cncc(-c2ccc3[nH]cc(-c4cncc(O[C@@H]5CCCNC5)n4)c3c2)c1` [Example 505], the IC50 is 29 nM in test [1] and 225 nM in test [2].

In the case of `CC(C)Oc1cncc(-c2ccc3[nH]cc(-c4nnc(N[C@H]5CCNC5)o4)c3c2)n1` [Example 511], the IC50 in test [1] was found to be 98 nM; in test [2] it was 480 nM.

On to `CC(C)Oc1cncc(-c2ccc3[nH]cc(-c4nnc(N[C@@H]5CCNC5)o4)c3c2)n1` [Example 512], for which the IC50 in test [1] was 47 nM; in test [2] it was 93 nM.

`CC(C)Oc1cncc(-c2ccc3[nH]cc(-c4nnc(NC5CCNCC5)o4)c3c2)n1` [Example 513]: the values for the IC50 in test [1] and in test [2] were 48 nM and 218 nM, respectively.

For `CC(C)Oc1cncc(-c2ccc3[nH]cc(-c4nnc(N[C@H]5CCCNC5)o4)c3c2)n1` [Example 514], the IC50 was 52 nM in test [1] and 194 nM in test [2].

Take `CC(C)Oc1cncc(-c2ccc3[nH]cc(-c4nnc(N5CCCC5)o4)c3c2)n1` [Example 520]: the IC50 was 52 nM in test [1] and 527 nM in test [2].

Consider `c1cnc(-c2c[nH]c3ccc(-c4cncc(C5CC5)n4)cc23)cn1` [Example 521], for which the IC50 in test [1] is 425 nM; in test [2], above 1000 nM.

For the compound `CC(C)Nc1nnc(-c2c[nH]c3ccc(-c4cncc(OC(C)C)n4)cc23)o1` [Example 522], the IC50 in test [1] was determined as 90 nM; in test [2] it was 446 nM.

With `CC(C)Oc1cncc(-c2ccc3[nH]cc(-c4nnc(Nc5ccccc5)o4)c3c2)n1` [Example 523], the IC50 is 359 nM in test [1] and above 1000 nM in test [2].

With `CN(C)c1nc(-c2n[nH]c3ccc(-c4c(F)cccc4F)cc23)cc(=O)[nH]1` [Example 526], the IC50 was found to be 34 nM in test [1] and 91 nM in test [2].

Regarding `O=c1cc(-c2n[nH]c3ccc(-c4c(F)cccc4F)cc23)nc[nH]1` [Example 530], the IC50 is 834 nM in test [1] and 565 nM in test [2].

With `COC(=O)c1ccc2[nH]cc(-c3nccc(N[C@@H]4CCCNC4)n3)c2c1` [Example 531], the IC50 in test [1] was 20 nM; in test [2] it was 182 nM.

Take `COC(=O)c1ccc2[nH]cc(-c3cncc(N[C@@H]4CCCNC4)n3)c2c1` [Example 532]: the IC50 in test [1] is 4 nM; in test [2] it was 56 nM.

`COC(=O)c1ccc2[nH]cc(-c3ccnc(N[C@@H]4CCCNC4)n3)c2c1` [Example 533]: the IC50 was found to be 105 nM in test [1] and 237 nM in test [2].

Consider `CCCCc1nc(-c2n[nH]c3ccc(-c4c(F)cccc4F)cc23)cc(=O)[nH]1` [Example 535], for which the results for the IC50 in test [1] and in test [2] were 70 nM and 262 nM, respectively.

For the compound `N#Cc1ccc2[nH]cc(-c3cncc(N[C@@H]4CCCNC4)n3)c2c1` [Example 536], the results for the IC50 in test [1] and in test [2] were 30 nM and 208 nM, respectively.

On to `O=C(O)c1ccc2[nH]cc(-c3cncc(N[C@@H]4CCCNC4)n3)c2c1` [Example 538], for which the IC50 in test [1] is 241 nM; in test [2] it was above 1000 nM.

Consider `O=C(O)c1ccc2[nH]cc(-c3nccc(N[C@@H]4CCCNC4)n3)c2c1` [Example 539], for which the results for the IC50 in test [1] and in test [2] were 834 nM and above 1000 nM, respectively.

As to `N#Cc1ccc2[nH]nc(-c3cncc(N[C@@H]4CCCNC4)n3)c2c1` [Example 540], the IC50 in test [1] was found to be 70 nM; in test [2], 396 nM.

On to `O=c1cc(-c2n[nH]c3ccc(-c4c(F)cccc4F)cc23)nc(N2CC[C@H](O)C2)[nH]1` [Example 543], for which the IC50 was determined as 30 nM in test [1] and 58 nM in test [2].

Take `c1cc2[nH]cc(-c3cncc(O[C@@H]4CCCNC4)n3)c2cc1-c1csc(N2CCCC2)n1` [Example 553]: the IC50 is 77 nM in test [1] and 520 nM in test [2].

`CN(C)C(=O)c1ccc2[nH]nc(-c3cncc(O[C@@H]4CCCNC4)n3)c2c1` [Example 556]: the IC50 in test [1] and in test [2] was above 1000 nM throughout.

Consider `CN(C)C(=O)c1ccc2[nH]nc(-c3ccnc(O[C@@H]4CCCNC4)n3)c2c1` [Example 557], for which the IC50 in test [1] and in test [2] was above 1000 nM in each case.

Turning to `CN(C)C(=O)c1ccc2[nH]nc(-c3ccnc(NC4CCNCC4)n3)c2c1` [Example 561], the IC50 in test [1] and in test [2] was above 1000 nM in each case.
